From patent US9199967B2, “Substituted heterocyclic amine compounds as cholestryl ester-transfer protein (CETP) inhibitors” (Dr. Reddy's Laboratories Ltd., priority 2011, dated 2015)

Biological target: T1, rCETP (Homo sapiens, UniProt P11597)
T1 sequence (P11597 18-493): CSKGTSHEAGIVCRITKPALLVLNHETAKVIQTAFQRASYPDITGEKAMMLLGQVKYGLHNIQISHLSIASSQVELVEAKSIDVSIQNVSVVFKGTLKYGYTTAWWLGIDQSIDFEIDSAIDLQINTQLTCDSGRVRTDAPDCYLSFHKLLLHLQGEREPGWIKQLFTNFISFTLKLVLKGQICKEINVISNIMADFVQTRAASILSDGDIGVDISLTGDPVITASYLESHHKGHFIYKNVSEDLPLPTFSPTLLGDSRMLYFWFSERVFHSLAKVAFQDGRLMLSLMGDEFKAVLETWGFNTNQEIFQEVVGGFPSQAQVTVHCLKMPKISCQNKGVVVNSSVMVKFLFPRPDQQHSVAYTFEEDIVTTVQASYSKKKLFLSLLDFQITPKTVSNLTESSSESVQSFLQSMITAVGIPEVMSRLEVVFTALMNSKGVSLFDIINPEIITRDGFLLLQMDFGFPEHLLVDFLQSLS
Experiment: In vitro CETP inhibition assay, fluorometric kit (ROAR Biomedicals)
Type: biochemical
Details: rCETP 50 ng, 37° C., 90 minutes, fluorescence Ex 492 nm / Em 516 nm; read-out: IC50 (nM), inhibitory effect on CETP
Source text: An in vitro cholesteryl ester transfer protein inhibition (CETP) assay using a commercially available fluorometric assay kit from ROAR Biomedicals, USA was used to measure the CETP inhibition activity of the compounds of this application. This assay kit uses a donor molecule containing a fluorescent self-quenched neutral lipid that is transferred to an acceptor molecule in the presence of CETP enzyme. The CETP-mediated transfer of the fluorescent neutral lipid to the acceptor molecule results in an increase in fluorescence (Excitation: 492 nm; Emission: 516 nm).
A 20 mM stock solution of compounds were prepared in 100% DMSO and further dilutions were made such that the final concentration of DMSO in the reaction mix was 1%. […] The assay was performed in 96 well microplates and in each well, the reaction mixture contained 190 μl of assay buffer (150 mM NaCl, 10 mM Tris and 2 mM EDTA, pH-7.4), 4 μl of donor particle, 4 IA of acceptor particle, rCETP (50 ng) and 2 μl of test compound at varying final concentration of 0.1, 1, 10, 100, 1000 & 10000 nM. Two control reactions were performed, one without test compound (positive control) and the other without the rCETP (negative control). The reactions were incubated at 37° C. for 90 minutes and the reaction plate was transferred to a PCR machine MX3005P and the fluorescence units (FLU) were quantified (Excitation: 492 nm; Emission: 516 nm).
The negative control values were subtracted from the positive control as well as all the test values to correct for background fluorescence. The percentage inhibition of activity is calculated by using the following equation: % Inhibition of CETP activity=[100−(100×(FLU in test/FLU in positive control))].
The half maximal inhibitory concentration (IC50) was determined using the BIOGRAPH software (version no. 3.3).

Compound	IC50 [nM]
CC1(C)CCc2cc(CN(Cc3cc(C(F)(F)F)cc(C(F)(F)F)c3)c3ncc(N4CCOCC4)cn3)c(N(CC3CC3)CC3CC3)nc21 [Example 3, 3-(((3,5-bis(trifluoromethyl)benzyl)(5-morpholinopyrimidin-2-yl)amino)methyl)-N,N-bis(cyclopropylmethyl)-7,7-dimethyl-6,7-dihydro-5H-cyclopenta[b]pyridin-2-amine]	~20
CC1CCc2cc(CN(Cc3cc(C(F)(F)F)cc(C(F)(F)F)c3)c3ncc(N4CCOCC4)cn3)c(N(CC3CC3)CC3CC3)nc21 (stereo not drawn) [Example 10, 3-(((3,5-bis(trifluoromethyl)benzyl)(5-morpholinopyrimidin-2-yl)amino)methyl)-N,N-bis(cyclopropylmethyl)-7-methyl-6,7-dihydro-5H-cyclopenta[b]pyridin-2-amine]	~90
CC1CCCc2cc(CN(Cc3cc(C(F)(F)F)cc(C(F)(F)F)c3)c3ncc(N4CCOCC4)cn3)c(N(CC3CC3)CC3CC3)nc21 (stereo not drawn) [Example 11, 3-(((3,5-bis(trifluoromethyl)benzyl)(5-morpholinopyrimidin-2-yl)amino)methyl)-N,N-bis(cyclopropylmethyl)-8-methyl-5,6,7,8-tetrahydroquinolin-2-amine]	~40
CC1(C)CCc2cc(CN(Cc3cc(C(F)(F)F)cc(C(F)(F)F)c3)c3ncc(-c4cc[nH]n4)cn3)c(N(CC3CC3)CC3CC3)nc21 [Example 6, 3-(((5-(1H-pyrazol-3-yl)pyrimidin-2-yl)(3,5-bis(trifluoromethyl)benzyl)amino)methyl)-N,N-bis(cyclopropylmethyl)-7,7-dimethyl-6,7-dihydro-5H-cyclopenta[b]pyridin-2-amine]	~29
CC1(C)CCc2cc(CN(Cc3cc(C(F)(F)F)cc(C(F)(F)F)c3)c3ncc(C(N)=O)cn3)c(N(CC3CC3)CC3CC3)nc21 [Example 9, 2-(((2-(bis(cyclopropylmethyl)amino)-7,7-dimethyl-6,7-dihydro-5H-cyclopenta[b]pyridin-3-yl)methyl)(3,5-bis(trifluoromethyl)benzyl)amino) pyrimidine-5-carboxamide]	~94
CC1(C)CCc2cc(CN(Cc3cc(C(F)(F)F)cc(C(F)(F)F)c3)c3ncc(-c4ccon4)cn3)c(N(CC3CC3)CC3CC3)nc21 [Example 7, 3-(((3,5-bis(trifluoromethyl)benzyl)(5-(isoxazol-3-yl)pyrimidin-2-yl)amino)methyl)-N,N-bis(cyclopropylmethyl)-7,7-dimethyl-6,7-dihydro-5H-cyclopenta[b]pyridin-2-amine]	~33
CC(=O)c1cnc(N(Cc2cc(C(F)(F)F)cc(C(F)(F)F)c2)Cc2cc3c(nc2N(CC2CC2)CC2CC2)C(C)(C)CC3)nc1 [Example 4, 1-(2-(((2-(bis(cyclopropylmethyl)amino)-7,7-dimethyl-6,7-dihydro-5H-cyclopenta[b]pyridin-3-yl)methyl)(3,5-bis(trifluoromethyl)benzyl)amino)pyrimidin-5-yl)ethanone]	~50
CC1(C)CCc2cc(CN(Cc3cc(C(F)(F)F)cc(C(F)(F)F)c3)c3ccc4[nH]c(=O)oc4c3)c(N(CC3CC3)CC3CC3)nc21 [Example 17, 6-(((2-(bis(cyclopropylmethyl)amino)-7,7-dimethyl-6,7-dihydro-5H-cyclopenta[b]pyridin-3-yl)methyl)(3,5-bis(trifluoromethyl)benzyl)amino)benzo[d]oxazol-2(3H)-one]	~16
CC1(C)CCc2cc(CN(Cc3cc(C(F)(F)F)cc(C(F)(F)F)c3)c3ncc(N4CCCC4=O)cn3)c(N(CC3CC3)CC3CC3)nc21 [Example 2, 1-(2-(((2-(bis(cyclopropylmethyl)amino)-7,7-dimethyl-6,7-dihydro-5H-cyclopenta[b]pyridin-3-yl)methyl)(3,5-bis(trifluoromethyl)benzyl)amino)pyrimidin-5-yl) pyrrolidin-2-one]	~29
